Structures can show the parent of a compound that is named as a salt. Where two headings read alike, the source gives them in different places.
Tests used:
XIAP or cIAP1 = experiment: Assays using XIAP and cIAP1 (result stated for XIAP or cIAP1); format: binding, human
[1] = system: EVSA-T (human breast carcinoma); experiment: Anti-proliferative activity, Alamar Blue assay, EVSA-T; format: cell-based; settings: for inhibition at 10 µM: read-out: EC50 or PI EVSA-T prolif (percentage inhibition)
XIAP BIR3 domain = XIAP BIR3 domain (Homo sapiens (Human), UniProt P98170); experiment: XIAP in vitro competitive displacement binding assay (fluorescence polarization); settings: given as ranges; a range also covers PI >= approx 50% at <= the upper concentration; read-out: IC50 or PI Xiap
cIAP-1 BIR3 domain = cIAP-1 BIR3 domain (Homo sapiens (Human), UniProt Q13490); experiment: cIAP-1 in vitro competitive displacement binding assay (fluorescence polarization); settings: given as ranges, read-out: IC50 or PI cIAP1
[2] = read-out: IC50 or at least 50% inhibition of the activity at a concentration of 1 μM, against XIAP or cIAP1
[3] = read-out: IC50 or at least 50% inhibition of the activity at a concentration of 10 μM, against XIAP or cIAP1
[4] = EVSA-T, 72 hours compound incubation, read-out: EC50 or PI EVSA-T prolif
[5] = read-out: EC50 or greater than 50% at 10 μM, EVSA-T cell line
[6] = AbuRPFK(5&6FAM)-amide probe (Probe B)

IC50 (XIAP or cIAP1; [2]) [nM]	IC50 (XIAP or cIAP1; [3]) [nM]	EC50 [1, 4] [nM]	EC50 [1, 5] [nM]	IC50 (XIAP BIR3 domain) [nM]	IC50 (cIAP-1 BIR3 domain; [6]) [nM]	IC50 (cIAP-1 BIR3 domain; AVPIK(5&6FAM)-amide probe (Probe A)) [nM]	Compound	inhibition at 10 µM ([1]; EVSA-T) [%]	IC50 (XIAP or cIAP1; read-out: IC50 or at least 50% inhibition of the activity at a concentration of 1 μM) [nM]	IC50 (XIAP or cIAP1; read-out: IC50 or at least 50% inhibition of the activity at a concentration of 10 μM) [nM]	EC50 ([1]; EVSA-T, 72 h, read-out: EC50 or PI EVSA-T prolif) [nM]	EC50 ([1]; EVSA-T, read-out: EC50 or greater than 50% at 10 μM) [nM]
< 1000	< 10000	280	< 10000	10 to 1000	10 to 1000		CN[C@@H](C)C(=O)Nc1ccc2c(n1)O[C@@](C)(c1ccccc1)C(=O)N2c1ccc(Cl)cc1 [Example 3, (S)—N—[(S)-1-(4-Chloro-phenyl)-3-methyl-2-oxo-3-phenyl-2,3-dihydro-1H-pyrido[2,3-b][1,4]oxazin-6-yl]-2-methylamino-propionamide hydrochloride]					
< 1000	< 10000			1000 to 10000		10 to 1000	CN[C@@H](C)C(=O)Nc1ccc2c(n1)O[C@@H](Cc1ccccc1)C(=O)N2 [Example 4, (S)—N—((S)-3-Benzyl-2-oxo-2,3-dihydro-1H-pyrido[2,3-b][1,4]oxazin-6-yl)-2-methylamino-propionamide hydrochloride]	-13				
< 1000	< 10000	120	< 10000	10 to 1000	10 to 1000		CN[C@@H](C)C(=O)Nc1ccc2c(n1)OC(C)(C)C(=O)N2c1ccc(Cl)cc1 [Example 6, (S)-N-[1-(4-Chloro-phenyl)-3,3-dimethyl-2-oxo-2,3-dihydro-1H-pyrido[2,3-b][1,4]oxazin-6-yl]-2-methylamino-propionamide hydrochloride]					
< 1000	< 10000	440	< 10000	10 to 1000	10 to 1000		CN[C@@H](C)C(=O)Nc1ccc2c(n1)OC1(CCCCC1)C(=O)N2c1ccc(Cl)cc1 [Example 7, (2S)-N-[4′-(4-Chlorophenyl)-3′-oxo-3′,4′-dihydrospiro[cyclohexane-1,2′-pyrido[2,3-b][1,4]oxazine]-7′-yl]-2-(methylamino)propanamide hydrochloride]					
< 1000	< 10000	190	< 10000	10 to 1000	10 to 1000		CN[C@@H](C)C(=O)Nc1ccc2c(n1)OC1(CCCC1)C(=O)N2c1ccc(Cl)cc1 [Example 8, (2S)-N-[4′-(4-Chlorophenyl)-3′-oxo-3′,4′-dihydrospiro[cyclopentane-1,2′-pyrido[2,3-b][1,4]oxazine]-7′-yl]-2-(methylamino)propanamide hydrochloride]					
< 1000	< 10000	120	< 10000	10 to 1000	10 to 1000		CN[C@@H](C)C(=O)Nc1ccc2c(n1)OC1(Cc3ccccc3C1)C(=O)N2c1ccc(Cl)cc1 [Example 9, (2S)-N-[4′-(4-Chlorophenyl)-3′-oxo-1,3,3′,4′-tetrahydrospiro[indene-2,2′-pyrido[2,3-b][1,4]oxazine]-7′-yl]-2-(methylamino)propanamide hydrochloride]					
< 1000	< 10000	170	< 10000	10 to 1000	10 to 1000		CN[C@@H](C)C(=O)Nc1ccc2c(n1)OC(C)(C1CCCC1)C(=O)N2c1cccc(Cl)c1 (stereo partly drawn) [Example 13, (S)-N-[1-(3-Chloro-phenyl)-3-cyclopentyl-3-methyl-2-oxo-2,3-dihydro-1H-pyrido[2,3-b][1,4]oxazin-6-yl]-2-methylamino-propionamide hydrochloride]					
< 1000	< 10000	360	< 10000	10 to 1000	10 to 1000		CN[C@@H](C)C(=O)Nc1ccc2c(n1)CN(c1cccc(Cl)c1)C(=O)N2c1cccc(Cl)c1 [Example 24, (S)—N-[1,3-Bis-(3-chloro-phenyl)-2-oxo-1,2,3,4-tetrahydro-pyrido[3,2-d]pyrimidin-6-yl]-2-methylamino-propionamide hydrochloride]					
< 1000	< 10000	2300	< 10000	10 to 1000	10 to 1000		CN[C@@H](C)C(=O)Nc1ccc2c(n1)CN(c1cc(Cl)cc(Cl)c1)C(=O)N2c1cc(Cl)cc(Cl)c1 [Example 25, (S)—N-[1,3-Bis-(3,5-dichloro-phenyl)-2-oxo-1,2,3,4-tetrahydro-pyrido[3,2-d]pyrimidin-6-yl]-2-methylamino-propionamide hydrochloride]					
< 1000	< 10000	650	< 10000	10 to 1000	10 to 1000		CN[C@@H](C)C(=O)Nc1ccc2c(n1)CN(C1CCC(C)(C)CC1)C(=O)N2c1cccc(Cl)c1 [Example 35, (S)-N-[1-(3-Chloro-phenyl)-3-(4,4-dimethyl-cyclohexyl)-2-oxo-1,2,3,4-tetrahydro-pyrido[3,2-d]pyrimidin-6-yl]-2-methylamino-propionamide hydrochloride]					
< 1000	< 10000	880	< 10000	10 to 1000	10 to 1000		CN[C@@H](C)C(=O)Nc1ccc2c(n1)CN(C(C)C(C)C)C(=O)N2c1cccc(Cl)c1 (stereo partly drawn) [Example 36, (S)—N-[1-(3-Chloro-phenyl)-3-(1,2-dimethyl-propyl)-2-oxo-1,2,3,4-tetrahydro-pyrido[3,2-d]pyrimidin-6-yl]-2-methylamino-propionamide]					
< 1000	< 10000	620	< 10000	10 to 1000	10 to 1000		CN[C@@H](C)C(=O)Nc1ccc2c(n1)CN(C(C)C1CCC1)C(=O)N2c1cccc(Cl)c1 (stereo partly drawn) [Example 37, (S)-N-[1-(3-Chloro-phenyl)-3-(1-cyclobutyl-ethyl)-2-oxo-1,2,3,4-tetrahydro-pyrido[3,2-d]pyrimidin-6-yl]-2-methylamino-propionamide hydrochloride]					
< 1000	< 10000		< 10000	1000 to 10000	10 to 1000		CN[C@@H](C)C(=O)Nc1ccc2c(n1)CN(C1CCN(C(C)=O)CC1)C(=O)N2c1cccc(Cl)c1 [Example 38, (S)—N-[3-(1-Acetyl-piperidin-4-yl)-1-(3-chloro-phenyl)-2-oxo-1,2,3,4-tetrahydro-pyrido[3,2-d]pyrimidin-6-yl]-2-methylamino-propionamide]	75				
< 1000	< 10000			10 to 1000	10 to 1000		CN[C@@H](C)C(=O)Nc1ccc2c(n1)CN(CC1CCCC1)C(=O)N2c1cccc(Cl)c1 [Example 42, (S)—N-[1-(3-Chloro-phenyl)-3-cyclopentylmethyl-2-oxo-1,2,3,4-tetrahydro-pyrido[3,2-d]pyrimidin-6-yl]-2-methylamino-propionamide hydrochloride]					

Compound	IC50 (XIAP or cIAP1; [2]) [nM]	IC50 (XIAP or cIAP1; [3]) [nM]	EC50 [1, 4] [nM]	EC50 [1, 5] [nM]	IC50 (XIAP BIR3 domain) [nM]	IC50 (cIAP-1 BIR3 domain; [6]) [nM]	IC50 (cIAP-1 BIR3 domain; AVPIK(5&6FAM)-amide probe (Probe A)) [nM]	inhibition at 10 µM ([1]; EVSA-T) [%]	IC50 (XIAP or cIAP1; read-out: IC50 or at least 50% inhibition of the activity at a concentration of 1 μM) [nM]	IC50 (XIAP or cIAP1; read-out: IC50 or at least 50% inhibition of the activity at a concentration of 10 μM) [nM]	EC50 ([1]; EVSA-T, 72 h, read-out: EC50 or PI EVSA-T prolif) [nM]	EC50 ([1]; EVSA-T, read-out: EC50 or greater than 50% at 10 μM) [nM]
CCC1(CC)Oc2nc(NC(=O)[C@H](C)N)ccc2N(c2ccc(Cl)cc2)C1=O [Example 45, (S)-2-Amino-N-[1-(4-chloro-phenyl)-3,3-diethyl-2-oxo-2,3-dihydro-1H-pyrido[2,3-b][1,4]oxazin-6-yl]-propionamide hydrochloride]					10 to 1000				< 1000	< 10000	2900	< 10000

Source: patent publication US9155743B2, “Bicyclic heterocycle compounds and their uses in therapy” (priority 2011, dated 2015)
